According to US11499978B2, “Method for measuring quality of therapeutic cell through real-time glutathione measurement” (CELL2IN, INC., priority 2017, dated 2022):

Columns and labels:
hUC-MSCs [1] = assay: mGSH distribution in hUC-MSCs after RSL3 (MitoFreSH, flow cytometry and confocal imaging); assay type: cell-based, human
Experimental: After the cultured human umbilical cord-derived mesenchymal stem cells (hUC-MSCs) at passage 4, 7 or 15 were treated with various concentrations of RSL3 and stained with MitoFreSH, the distribution pattern of mitochondrial GSH (mGSH) in the cells was confirmed by histograms using flow cytometry and confocal imaging.
hUC-MSCs at passage 4, 7 or 15 were prepared, seeded at 70000 cells/well in a 6-well cell culture plate, and cultured at 37° C. for 24 hours. The medium used in the culture was prepared by adding 10% fetal bovine serum and 1× penicillin-streptomycin to α-MEM. […] The cells detached from the plate were transferred to an FACS tube and stored on ice, and a fluorescence level was measured using a flow cytometer.
hUC-MSCs at passage 4, 7 or 15 were prepared, seeded at 7000 cells/100 μl per well in a 96-well cell culture plate, and cultured at 37° C. for 24 hours. […] To remove MitoFreSH-Tracer from the medium before measurement, the medium was exchanged with fresh 10 mM HEPES-containing HBSS, and fluorescence images were measured using a confocal imaging system, Operetta.
A F510/F580 ratio referring to a GSH mean value in cells was calculated by measuring fluorescence values of F510 (fluorescence value when MitoFreSH-Tracer was bound with SH) and F580 (fluorescence value of MitoFreSH-Tracer, which was not bound with SH) in cells and dividing the F510 value by the F580 value. […]

human dermal fibroblasts = assay: mGSH level in human dermal fibroblasts after RSL3; assay type: cell-based; details: as the subculture continued; confocal imaging
Experimental: As described in the experiment for MSCs, human dermal fibroblasts subcultured several times were treated with RSL3 and the cells were stained with MitoFreSH-Tracer, and a ratio between cells maintaining mGSH and cells not maintaining mGSH was represented as a percentage through confocal imaging.

hUC-MSCs [2] = assay: CD146 surface expression in mGSH High and mGSH Low hUC-MSCs after RSL3; assay type: cell-based, human; details: P4 hUC-MSC group in which mGSH level is lowered by RSL3, compared with mGSH level-maintaining group
Text: To confirm whether the stem cell function of cells in which an mGSH level decreased is deteriorated under lipid oxidative stress caused by RSL3 treatment, an expression level of CD146, which is a cell surface protein known to be highly expressed in stem cells of high quality according to conventional literature, was confirmed through flow cytometry.
The cells were stained by the same method as a method of measuring a mitochondria GSH level through the flow cytometry described above, and detached from the plate using trypsin. The detached cells were treated with an antibody for flow cytometry with respect to CD146 to which a fluorescent material BUV395 was bound at 4° C. for 30 minutes, and washed with PBS. Using a flow cytometer, F510 and F580 fluorescence values for measuring a GSH level and a BUV395 fluorescence value for measuring CD146 expression were measured. Afterward, based on the point at which the histogram showing the F510/F580 distribution was divided into two peaks, the cells were divided into GSH^High cells (right peak) and GSH^Low cells (left peak) using FlowJo software, and a CD146-positive ratio of the corresponding cells is represented as a percentage (%).

hUC-MSCs [3] = assay: CFU-F assay of hUC-MSCs; assay type: cell-based, human; details: ferrostatin-1 0.2, 1, 2 and 4 μM, liproxstatin-1 0.1, 0.5, 1 and 2 μM, 24 hours, n=3
Experimental: The inventors observed an effect of the material on stem cells by treating each stem cells with a material for enhancing a glutathione evaluation parameter. When hUC-MSCs were subcultured in a L-AA2G-containing medium, CFU-F, migration capacity, and an anti-inflammatory effect were observed. A CFU-F assay (n=3) was performed by treating hUC-MSCs with 125 or 250 μg/mL of AA2G for three days. As shown in FIGS. 16A and 16B, it was confirmed that, when AA2G was treated, CFU-F increased. In addition, as hUC-MSCs were treated with 125 or 250 μg/mL of AA2G for three days, PDGF-AA-induced migration capacity (n=3) was analyzed. As shown in FIGS. 17A and 17B, it was confirmed that the migration capacity was increased by AA2G treatment. In addition, the reduction in T cell proliferation, the reduction in T cell differentiation, and the promotion of Treg cell differentiation were observed by treating hUC-MSCs with 125 or 250 μg/mL of AA2G for three days. […] Meanwhile, hUC-MSCs were cultured with a glutathione precursor such as γ-glutamyl cysteine (GGC, 0.1, 0.25, and 0.5 mM). A CFU-F assay (n=3) was performed by treating hUC-MSCs with each concentration of GGC for 2 hours. […] In addition, SDF1α and PDGF-AA-induced migration capacities (n=3) were analyzed for hUC-MSCs without treatment with GGC, and SDF1α and PDGF-AA-induced migration abilities (n=3) were analyzed by treating hUC-MSCs with the increasing concentrations of GGC. STI571 was used as a PDGFR kinase inhibitor. As shown in FIGS. 20A to 20C, it was confirmed that, according to an increase in GGC treatment concentration, SDF1α- and PDGF-AA-induced migration capacities were enhanced. A CFU-F assay (n=3) was performed by treating hUC-MSCs with 0.2, 1, 2, and 4 μM ferrostatin-1 and 0.1, 0.5, 1, and 2 μM liproxstatin-1 for 24 hours.

T cells = assay: Anti-inflammatory effect of treated hUC-MSCs on T cells; assay type: cell-based
Experimental: The inventors observed an effect of the material on stem cells by treating each stem cells with a material for enhancing a glutathione evaluation parameter. When hUC-MSCs were subcultured in a L-AA2G-containing medium, CFU-F, migration capacity, and an anti-inflammatory effect were observed. A CFU-F assay (n=3) was performed by treating hUC-MSCs with 125 or 250 μg/mL of AA2G for three days. As shown in FIGS. 16A and 16B, it was confirmed that, when AA2G was treated, CFU-F increased. In addition, as hUC-MSCs were treated with 125 or 250 μg/mL of AA2G for three days, PDGF-AA-induced migration capacity (n=3) was analyzed. As shown in FIGS. 17A and 17B, it was confirmed that the migration capacity was increased by AA2G treatment. In addition, the reduction in T cell proliferation, the reduction in T cell differentiation, and the promotion of Treg cell differentiation were observed by treating hUC-MSCs with 125 or 250 μg/mL of AA2G for three days.
In addition, hUC-MSCs were cultured with ferrostatin-1 (0.2, 1, 2 and 4 μM) and liproxstatin-1 (0.1, 0.5, 1 and 2 μM), which control a glutathione level in cells by inhibiting lipid oxidation. […] Meanwhile, the hUC-MSCs were treated with 1 μM ferrostatin-1 for 24 hours, 0.2 mM GGC for 2 hours, and 2 mM GSH-EE for 2 hours. As a result, the reduction in T cell proliferation ability and the reduction in T cell differentiation capacity were observed, and promotion of Treg cell differentiation was observed.

[4] = hUC-MSCs treated with 1 μM ferrostatin-1 24 h, 0.2 mM GGC 2 h, 2 mM GSH-EE 2 h

Compound | mGSH levels (hUC-MSCs [1]; hUC-MSCs at passage 4, 7 or 15, RSL3 0.1/0.5/1 μM, depending on RSL3 concentration and passage number) | proportion of cells in which mGSH decreases by treatment with RSL3 (human dermal fibroblasts) | lowering of CD146-positive ratio (hUC-MSCs [2]) | effect of RSL3 on mGSH upon Ferrostatin-1 treatment (hUC-MSCs [1]; hUC-MSCs treated with RSL3) | CFU-F (hUC-MSCs [3]) | anti-inflammatory effect of the hUC-MSCs (T cells; ferrostatin-1 1 μM 24 h, GGC 0.2 mM 2 h, FIGS. 27, 28A to 28C) | T cell differentiation capacity (T cells; [4]) | T cell proliferation ability (T cells; [4]) | Treg cell differentiation (T cells; [4])
COC(=O)c1ccc([C@@H]2c3[nH]c4ccccc4c3C[C@@H](C(=O)OC)N2C(=O)CCl)cc1 [RSL3, 1S,3R-RAS-selective lethal 3] | reduced | increased | approximately 25% |  |  |  |  |  | 
CCOC(=O)c1ccc(NC2CCCCC2)c(N)c1 [ferrostatin-1] |  |  |  | disappeared | improved | did not alter | reduction | reduction | promotion
